Laboratory results from ChEMBL document CHEMBL4177631, “Polyhydroxylated azetidine iminosugars: Synthesis, glycosidase inhibitory activity and molecular docking studies” (Bioorg Med Chem Lett, 2017).
pIC50: −log10 of the molar value. Active and inactive are the calls of the source. The calls are words filed in the database; no cut-off is given here.

Legend:
[1] = molecular target: T1, Alpha-glucosidase (Aspergillus niger, UniProt P56526); assay: Inhibition of Aspergillus niger alpha-glucosidase using p-nitrophenyl-alpha-D-glucopyranoside as substrate preincubated for 1 hr followed by substrate addition measured after 10 mins by spectrophotometric method
T1 sequence (P56526 whole entry): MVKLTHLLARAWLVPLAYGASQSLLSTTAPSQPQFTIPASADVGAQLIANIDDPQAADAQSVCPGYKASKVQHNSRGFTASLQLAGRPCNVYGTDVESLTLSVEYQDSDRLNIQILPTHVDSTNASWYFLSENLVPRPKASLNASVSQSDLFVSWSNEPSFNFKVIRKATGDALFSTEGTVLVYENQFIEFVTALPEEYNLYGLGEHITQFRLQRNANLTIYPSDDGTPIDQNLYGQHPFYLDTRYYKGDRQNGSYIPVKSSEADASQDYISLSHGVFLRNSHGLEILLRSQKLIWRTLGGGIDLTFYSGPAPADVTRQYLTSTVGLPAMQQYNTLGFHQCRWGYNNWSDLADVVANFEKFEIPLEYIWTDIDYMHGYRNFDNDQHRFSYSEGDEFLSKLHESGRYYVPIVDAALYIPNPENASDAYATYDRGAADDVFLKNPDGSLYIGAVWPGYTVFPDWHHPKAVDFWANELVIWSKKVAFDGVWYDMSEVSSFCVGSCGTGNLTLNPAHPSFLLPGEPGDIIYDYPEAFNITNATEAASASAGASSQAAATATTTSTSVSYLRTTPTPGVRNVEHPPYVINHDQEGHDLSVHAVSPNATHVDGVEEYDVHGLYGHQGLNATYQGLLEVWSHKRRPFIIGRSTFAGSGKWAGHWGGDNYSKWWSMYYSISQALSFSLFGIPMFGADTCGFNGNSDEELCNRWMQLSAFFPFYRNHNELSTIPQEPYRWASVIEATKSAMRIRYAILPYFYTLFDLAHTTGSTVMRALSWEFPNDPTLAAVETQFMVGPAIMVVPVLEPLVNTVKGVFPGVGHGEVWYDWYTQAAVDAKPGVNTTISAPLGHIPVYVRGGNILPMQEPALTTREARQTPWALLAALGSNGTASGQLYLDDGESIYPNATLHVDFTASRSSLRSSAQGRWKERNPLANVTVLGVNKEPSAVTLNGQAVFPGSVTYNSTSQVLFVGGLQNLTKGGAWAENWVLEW

[2] = Inhibition of Aspergillus niger amyloglucosidase using starch as substrate after 10 mins by Miller method
[3] = molecular target: T2, Alpha-galactosidase (Escherichia coli) (UniProt P16551); assay: Inhibition of Escherichia coli alpha-galactosidase at 1 mM using p-nitrophenyl-alpha-D-galactopyranoside as substrate preincubated for 1 hr followed by substrate addition measured after 10 mins by spectrophotometric method
T2 sequence (whole entry): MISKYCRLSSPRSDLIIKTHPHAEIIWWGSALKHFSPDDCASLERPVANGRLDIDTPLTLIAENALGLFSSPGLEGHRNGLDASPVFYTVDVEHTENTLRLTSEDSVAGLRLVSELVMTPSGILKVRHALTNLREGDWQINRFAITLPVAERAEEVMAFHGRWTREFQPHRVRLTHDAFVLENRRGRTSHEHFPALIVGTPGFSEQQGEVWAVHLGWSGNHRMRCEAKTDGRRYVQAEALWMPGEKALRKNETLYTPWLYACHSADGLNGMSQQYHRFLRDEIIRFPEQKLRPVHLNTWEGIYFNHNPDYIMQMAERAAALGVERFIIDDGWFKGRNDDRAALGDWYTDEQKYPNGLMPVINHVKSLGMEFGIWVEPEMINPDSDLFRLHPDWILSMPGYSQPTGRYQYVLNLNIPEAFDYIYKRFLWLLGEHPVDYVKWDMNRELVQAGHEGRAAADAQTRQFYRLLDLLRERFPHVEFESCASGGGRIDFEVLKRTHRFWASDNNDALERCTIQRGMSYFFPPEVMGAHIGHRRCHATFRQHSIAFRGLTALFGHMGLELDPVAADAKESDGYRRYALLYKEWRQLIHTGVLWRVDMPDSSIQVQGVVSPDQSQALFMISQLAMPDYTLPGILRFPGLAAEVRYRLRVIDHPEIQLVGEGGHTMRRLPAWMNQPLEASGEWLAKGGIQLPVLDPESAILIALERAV

[4] = molecular target: T3, Alpha-galactosidase (Escherichia coli, UniProt P16551); assay: Inhibition of Escherichia coli alpha-galactosidase using p-nitrophenyl-alpha-D-galactopyranoside as substrate preincubated for 1 hr followed by substrate addition measured after 10 mins by spectrophotometric method
T3 sequence (P16551 whole entry): T2 sequence (whole entry)

[5] = molecular target: T4, Alpha-mannosidase (Canavalia ensiformis, UniProt C0HJB3); assay: Inhibition of Canavalia ensiformis alpha-mannosidase using p-nitrophenyl-alpha-D-mannopyranoside as substrate preincubated for 1 hr followed by substrate addition measured after 10 mins by spectrophotometric method
T4 sequence (C0HJB3 whole entry): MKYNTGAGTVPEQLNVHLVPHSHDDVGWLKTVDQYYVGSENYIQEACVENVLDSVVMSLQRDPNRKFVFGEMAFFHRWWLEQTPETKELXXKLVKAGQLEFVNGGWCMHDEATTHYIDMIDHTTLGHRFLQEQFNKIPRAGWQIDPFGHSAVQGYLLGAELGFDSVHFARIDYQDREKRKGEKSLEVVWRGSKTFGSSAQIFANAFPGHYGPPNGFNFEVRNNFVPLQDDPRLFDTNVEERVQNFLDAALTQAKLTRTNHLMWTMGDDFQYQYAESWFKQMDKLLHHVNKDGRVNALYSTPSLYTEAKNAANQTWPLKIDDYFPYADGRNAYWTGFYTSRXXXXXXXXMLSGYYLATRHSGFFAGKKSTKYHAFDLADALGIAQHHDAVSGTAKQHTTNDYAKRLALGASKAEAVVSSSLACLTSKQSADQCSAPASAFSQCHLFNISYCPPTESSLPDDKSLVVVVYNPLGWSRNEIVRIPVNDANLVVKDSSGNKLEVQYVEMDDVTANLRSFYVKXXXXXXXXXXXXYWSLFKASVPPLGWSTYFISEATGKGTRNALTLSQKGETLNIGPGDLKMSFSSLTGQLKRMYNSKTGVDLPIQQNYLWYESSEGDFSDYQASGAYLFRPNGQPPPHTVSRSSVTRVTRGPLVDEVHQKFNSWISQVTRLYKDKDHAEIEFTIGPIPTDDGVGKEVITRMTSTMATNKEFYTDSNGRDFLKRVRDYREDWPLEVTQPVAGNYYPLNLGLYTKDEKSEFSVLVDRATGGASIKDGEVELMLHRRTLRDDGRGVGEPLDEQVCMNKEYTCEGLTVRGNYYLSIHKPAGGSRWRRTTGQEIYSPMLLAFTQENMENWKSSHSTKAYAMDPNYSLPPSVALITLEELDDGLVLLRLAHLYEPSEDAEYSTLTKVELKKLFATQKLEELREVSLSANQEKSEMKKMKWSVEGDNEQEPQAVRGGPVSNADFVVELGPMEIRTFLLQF

[6] = test system: Aspergillus niger; assay: Inhibition of Aspergillus niger amyloglucosidase at 1 mM using starch as substrate after 10 mins by Miller method

pIC50 [1]	pIC50 [2]	inhibition [3]	pIC50 [4]	pIC50 [5]	inhibition [6]	Compound
4.24	3.70	inactive	–	–	–	OCCN1C[C@H](O)[C@@H](O)[C@H](O)[C@H]1CO [MIGLITOL]
4.27	4.11	–	4.26	4.12	–	OC[C@@H]1N[C@H]([C@@H](O)CO)[C@@H]1O
4.05	3.09	inactive	–	3.70	–	OC[C@@H]1N[C@H](CO)[C@@H]1O
4.19	–	inactive	–	4.08	inactive	CN1[C@H](C(=O)O)[C@H](O)[C@@H]1CO
